Key:
PDE4B = target: T1, PDE4B (Homo sapiens, UniProt Q07343); test: PDE/AK Biological Activity Assay (coupled PDE/adenylate kinase bioluminescent assay); assay type: biochemical; conditions: catalytic domain of PDE4B, read-out: PDE4 Enzyme IC50
T1 construct: hex-histidine (His6) (N); made in house
Source text: Phosphodiesterases regulate the activity of the second messenger cyclic adenosine monophosphate (cAMP) by hydrolyzing cAMP to adenosine monophosphate (AMP). We developed a coupled PDE/AK bioluminescent high-throughput assay to measure the activity of phosphodiesterases. In the PDE/AK assay, the AMP produced from the hydrolysis of cAMP by phosphodiesterase is converted to adenosine diphosphate (ADP) by the phosphotransferase activity of adenylate kinase (also known as ADK or myokinase). Adenylate kinase will catalyze the conversion of 1 mole of AMP and 1 mole of ATP into 2 moles of ADP. Thus the conversion of AMP to ADP will result in the subsequent loss of ATP. The decrease in ATP concentration can be monitored as light output using luciferase in a reaction that requires ATP to produce light. The PDE/AK assay uses luciferase, which catalyzes the production of light from ATP present in the reaction mix. The amount of emitted light is inversely proportional to the level of AMP present in the reaction. Test compounds are incubated with the phosphodiesterases and phosphodiesterase inhibitors will decrease the rate of cAMP hydrolysis and decrease the subsequent production of AMP. Thus phosphodiesterase inhibitors will decrease the conversion of ATP to ADP and result in the greatest emission of light.
Compounds may be screened for functional potency in in vitro biochemical assays for their ability to inhibit the activity of phosphodiesterase (PDE) enzymes. A coupled PDE/AK assay was utilized to measure the inhibitory activity of compounds on PDE isoforms. The catalytic domain of PDE4B was fused to an amino-terminus hex-histidine affinity tag and purified. PDE4B enzyme was incubated with compounds for 10 minutes. Cyclic AMP substrate, ATP and adenylate kinase were then added to the PDE enzyme mix and incubated for 45 minutes at room temperature. A commercial ATP detection assay, Perkin Elmer's easyLite ATP detection reagent, was then added to measure the relative amount of ATP present in the reaction. After 10 minute incubation, the luminescent signal was quantitated with either the Perkin Elmer Viewlux or Molecular Devices Acquest or Analyst. Roflumilast and Rolipram are the positive controls used in the assay.

Solubility Protocol = assay type: physicochemical; conditions: aqueous buffer, thermodynamic from solid; pH 7.4, 0.1 M sodium phosphate buffer
Protocol: About 5 mg of a compound was mixed with 500 μL of pH 7.4, 0.1 M sodium phosphate buffer. The mixture was adjusted to the original pH of 7.4 and then mixed overnight or longer via rotary mixing. The sample was checked for pH and then filtered through a 0.45 μm filter. If the pH drifted away, the sample was adjusted to its original pH and mixed for at least 15 minutes before filtration. The filtrate was analyzed using HPLC.

T1 sequence (Q07343 330-659 limits assumed, species assumed): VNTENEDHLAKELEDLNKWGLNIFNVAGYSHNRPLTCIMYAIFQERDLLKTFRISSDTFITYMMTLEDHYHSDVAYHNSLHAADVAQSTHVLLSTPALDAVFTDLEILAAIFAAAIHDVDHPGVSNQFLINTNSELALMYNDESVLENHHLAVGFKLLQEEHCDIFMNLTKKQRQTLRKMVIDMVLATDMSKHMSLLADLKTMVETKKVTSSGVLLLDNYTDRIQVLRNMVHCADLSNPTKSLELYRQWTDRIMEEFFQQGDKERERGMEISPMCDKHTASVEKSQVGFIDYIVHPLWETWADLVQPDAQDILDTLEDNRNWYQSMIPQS

Row | SMILES | IC50 (PDE4B) [µM] | solubility (Solubility Protocol) [µg/mL]
1 | COc1ccc2c(Nc3c(C)cncc3C)cc(=O)[nH]c2c1OCCCCCO [Example 83, 4-(3,5-dimethylpyridin-4-ylamino)-8-(5-hydroxypentyloxy)-7-methoxyquinolin-2(1H)-one] | < 1 | –
2 | COc1ccc2c(Nc3c(Cl)cncc3Cl)cc(=O)[nH]c2c1OCCCCc1nn[nH]n1 [Example 68, 8-(4-(2H-tetrazol-5-yl)butoxy)-4-(3,5-dichloropyridin-4-ylamino)-7-methoxyquinolin-2(1H)-one] | < 1 | ≥ 1000
3 | COc1ccc2c(Nc3c(C)cncc3C)cc(=O)[nH]c2c1OCC(C)C [Example 12, 4-(3,5-Dimethylpyridin-4-ylamino)-8-isobutoxy-7-methoxyquinolin-2(1H)-one] | – | ≥ 1000
4 | COc1ccc2c(Nc3c(C)cncc3C)cc(=O)[nH]c2c1OCCCCc1nn[nH]n1 [Example 86, 8-(4-(2H-tetrazol-5-yl)butoxy)-4-(3,5-dimethylpyridin-4-ylamino)-7-methoxyquinolin-2(1H)-one] | < 1 | –
5 | COc1ccc2c(Nc3c(Cl)cncc3Cl)cc(=O)[nH]c2c1OCCCn1ccnc1 [Example 62, 8-(3-(1H-imidazol-1-yl)propoxy)-4-(3,5-dichloropyridin-4-ylamino)-7-methoxyquinolin-2(1H)-one] | < 1 | ≥ 1000
6 | COc1ccc2c(Nc3c(C)cncc3C)cc(=O)[nH]c2c1OCCCCCCc1nn[nH]n1 [Example 88, 8-(6-(2H-tetrazol-5-yl)hexyloxy)-4-(3,5-dimethylpyridin-4-ylamino)-7-methoxyquinolin-2(1H)-one] | < 1 | –
7 | COc1ccc2c(Nc3c(Cl)cncc3Cl)cc(=O)[nH]c2c1OCCCCC(=O)N[C@@H](CO)C(=O)O [Example 64, (S)-2-(5-(4-(3,5-dichloropyridin-4-ylamino)-7-methoxy-2-oxo-1,2-dihydroquinolin-8-yloxy)pentanamido)-3-hydroxypropanoic acid] | < 1 | ≥ 1000
8 | COc1ccc2c(Nc3c(C)cncc3C)cc(=O)[nH]c2c1OCCCn1ccnc1 [Example 77, 8-(3-(1H-imidazol-1-yl)propoxy)-4-(3,5-dimethylpyridin-4-ylamino)-7-methoxyquinolin-2(1H)-one] | < 1 | < 1000
9 | COc1ccc2c(Nc3c(Cl)cncc3Cl)cc(=O)[nH]c2c1OCCCCC(=O)NCC(=O)O [Example 94, 2-(5-(4-(3,5-dichloropyridin-4-ylamino)-7-methoxy-2-oxo-1,2-dihydroquinolin-8-yloxy)pentanamido)acetic acid] | < 1 | –
10 | CCN1CCN(CCCCCCOc2c(OC)ccc3c(Nc4c(Cl)cncc4Cl)cc(=O)[nH]c23)CC1 [Example 23, 4-(3,5-dichloropyridin-4-ylamino)-8-(6-(4-ethylpiperazin-1-yl)hexyloxy)-7-methoxyquinolin-2(1H)-one] | < 1 | –
11 | COc1ccc2c(Nc3c(Cl)cncc3Cl)cc(=O)[nH]c2c1OCCCOCCOCCO [Example 98, 4-(3,5-dichloropyridin-4-ylamino)-8-(3-(2-(2-hydroxyethoxy)ethoxy)propoxy)-7-methoxyquinolin-2(1H)-one] | < 1 | –
12 | COc1ccc2c(Nc3c(Cl)cncc3Cl)cc(=O)[nH]c2c1OCCCCCN1CCOCC1 [Example 49, 4-(3,5-dichloropyridin-4-ylamino)-7-methoxy-8-(5-morpholinopentyloxy)quinolin-2(1H)-one] | < 1 | ≥ 1000
13 | COc1ccc2c(Nc3c(C)cncc3C)cc(=O)[nH]c2c1OCCCCCc1nn[nH]n1 [Example 87, 8-(5-(2H-tetrazol-5-yl)pentyloxy)-4-(3,5-dimethylpyridin-4-ylamino)-7-methoxyquinolin-2(1H)-one] | < 1 | –
14 | COc1ccc2c(Nc3c(C)cncc3C)cc(=O)[nH]c2c1OCCCCCCN1CCN(C)CC1 [Example 34, 4-(3,5-Dimethylpyridin-4-ylamino)-7-methoxy-8-(6-(4-methylpiperazin-1-yl)hexyloxy)quinolin-2(1H)-one] | < 1 | –
15 | COc1ccc2c(Nc3c(Cl)cncc3Cl)cc(=O)[nH]c2c1OCCCCC(=O)N[C@@H](Cc1c[nH]cn1)C(=O)O [Example 95, (S)-2-(5-(4-(3,5-dichloropyridin-4-ylamino)-7-methoxy-2-oxo-1,2-dihydroquinolin-8-yloxy)pentanamido)-3-(1H-imidazol-4-yl)propanoic acid] | < 1 | –
16 | COc1ccc2c(Nc3c(C)cncc3C)cc(=O)[nH]c2c1OCCCCN(C)C [Example 44, 8-(4-(dimethylamino)butoxy)-4-(3,5-dimethylpyridin-4-ylamino)-7-methoxyquinolin-2(1H)-one] | < 1 | –
17 | COc1ccc2c(Nc3c(C)cncc3C)cc(=O)[nH]c2c1OCCCCO [Example 82, 4-(3,5-dimethylpyridin-4-ylamino)-8-(4-hydroxybutoxy)-7-methoxyquinolin-2(1H)-one] | < 1 | –
18 | COc1ccc2c(Nc3c(Cl)cncc3Cl)cc(=O)[nH]c2c1OCCCCCCNC(=N)N [Example 63, 1-(6-(4-(3,5-dichloropyridin-4-ylamino)-7-methoxy-2-oxo-1,2-dihydroquinolin-8-yloxy)hexyl)guanidine] | < 1 | –
19 | COc1ccc2c(Nc3c(Cl)cncc3Cl)cc(=O)[nH]c2c1OCCCCCCN(CCO)CCO [Example 31, 8-(6-(Bis(2-hydroxyethyl)amino)hexyloxy)-4-(3,5-dichloropyridin-4-ylamino)-7-methoxyquinolin-2(1H)-one] | < 1 | –

Other lines, results leading:

Row | IC50 (PDE4B) [µM] | solubility (Solubility Protocol) [µg/mL] | SMILES
20 | < 1 | ≥ 1000 | COc1ccc2c(Nc3c(Cl)cncc3Cl)cc(=O)[nH]c2c1OCCCCCN1CCN(C)CC1 [Example 47, 4-(3,5-dichloropyridin-4-ylamino)-7-methoxy-8-(5-(4-methylpiperazin-1-yl)pentyloxy)quinolin-2(1H)-one]
21 | < 1 | – | COCCOCCOCCOCCCOc1c(OC)ccc2c(Nc3c(Cl)cncc3Cl)cc(=O)[nH]c12 [Example 97, 8-(2,5,8,11-tetraoxatetradecan-14-yloxy)-4-(3,5-dichloropyridin-4-ylamino)-7-methoxyquinolin-2(1H)-one]
22 | < 1 | ≥ 1000 | COCCOCCOCCCOc1c(OC)ccc2c(Nc3c(Cl)cncc3Cl)cc(=O)[nH]c12 [Example 70, 4-(3,5-dichloropyridin-4-ylamino)-7-methoxy-8-(3-(2-(2-methoxyethoxy)ethoxy)propoxy)quinolin-2(1H)-one]
23 | < 1 | < 1000 | COc1ccc2c(Nc3c(C)cncc3C)cc(=O)[nH]c2c1OCCCCCCCCC(=O)O [Example 76, 9-(4-(3,5-dimethylpyridin-4-ylamino)-7-methoxy-2-oxo-1,2-dihydroquinolin-8-yloxy)nonanoic acid]
24 | < 1 | ≥ 1000 | COc1ccc2c(Nc3c(Cl)cncc3Cl)cc(=O)[nH]c2c1OCCCCCCNCCCO [Example 32, 4-(3,5-Dichloropyridin-4-ylamino)-8-(6-(3-hydroxypropylamino)hexyloxy)-7-methoxyquinolin-2(1H)-one]
25 | < 1 | ≥ 1000 | COc1ccc2c(Nc3c(Cl)cncc3Cl)cc(=O)[nH]c2c1OCC(N)=O [Example 50, 2-(4-(3,5-dichloropyridin-4-ylamino)-7-methoxy-2-oxo-1,2-dihydroquinolin-8-yloxy)acetamide]
26 | < 1 | – | COc1ccc2c(Nc3c(C)cncc3C)cc(=O)[nH]c2c1OCCCO [Example 81, 4-(3,5-dimethylpyridin-4-ylamino)-8-(3-hydroxypropoxy)-7-methoxyquinolin-2(1H)-one]
27 | < 1 | – | COc1ccc2c(Nc3c(C)cncc3C)cc(=O)[nH]c2c1OCCCc1nn[nH]n1 [Example 85, 8-(3-(2H-tetrazol-5-yl)propoxy)-4-(3,5-dimethylpyridin-4-ylamino)-7-methoxyquinolin-2(1H)-one]
28 | < 1 | – | COc1ccc2c(Nc3c(C)cncc3C)cc(=O)[nH]c2c1OCCCCCCO [Example 84, 4-(3,5-dimethylpyridin-4-ylamino)-8-(6-hydroxyhexyloxy)-7-methoxyquinolin-2(1H)-one]
29 | < 1 | – | COc1ccc2c(Nc3c(Cl)cncc3Cl)cc(=O)[nH]c2c1OCCCOCCOCCOCCO [Example 96, 4-(3,5-dichloropyridin-4-ylamino)-8-(3-(2-(2-(2-hydroxyethoxy)ethoxy)ethoxy)propoxy)-7-methoxyquinolin-2(1H)-one]
30 | < 1 | – | COc1ccc2c(Nc3c(Cl)cncc3Cl)cc(=O)[nH]c2c1OCCCCCCN(C)CCN(C)C [Example 24, 4-(3,5-dichloropyridin-4-ylamino)-8-(6-((2-(dimethylamino)ethyl)(methyl)amino)hexyloxy)-7-methoxyquinolin-2(1H)-one]
